# Reference: patent US5571816A, “Pyrimidines” (Hoechst Aktiengesellschaft, priority 1992, dated 1996)
# Counter-ions that a name gives are not always drawn. Like-named read-outs stand apart in the source and are kept apart here.
# How the values were obtained:
# LDL receptor mRNA [1] = test: Stimulation of LDL receptor mRNA expression in HepG2 cells (Northern blot); type: cell-based; conditions: Homo sapiens; HepG2, 2 × 10^-6 M, 16 h; control = 100%; ratio to β-actin mRNA
# Experimental: 1a. In the human hepatocytoma cell line HepG2, which is recognized everywhere as model, the LDL receptor mRNA levels are increased by the compounds of the formula I (Table I).
# (§1) The mRNA was prepared by the method described by Chomczynski, P. and Sacchi, N., in Anal. Biochem. 162, 156-159 (1987). In the case of organs (such as, for example, liver), the deep-frozen tissue was previously homogenized on dry ice in a mortar, and the mRNA was further concentrated by means of oligo dT by standard methods (cf. Sambrook, J., Fritsch, E. F. and Maniatis, T., Molecular Cloning, second edition, Cold Spring Harbor (1989); this collection of methods also includes descriptions of all the other relevant standard processes of molecular biology used here). 5 to […] of the dissolved mRNA obtained in this way were denatured by standard processes and fractionated on 1% horizontal agarose gels. The mRNA was transferred by capillary blotting to Hybond N membranes (Amersham). Used as specific hybridization probe was a partial LDL receptor cDNA clone and as internal standard was a plasmid which contained a β-actin gene. Both plasmids were labeled using a random primer kit from Amersham to a specific activity of 5×10^9 cpm/μg. Prehybridization, hybridization and washing of the filters took place by standard processes. The filters were subsequently exposed on Cronex 4 films (Dupont) in the presence of an intensifying screen at -70° C. overnight or for up to 14 days, and the hybridization signals were quantified from the intensity of blackening of the film using a commercially available laser densitometer. Subsequently, the quotient of the intensity of the LDL receptor band and of the actin band was determined as internal standard to correct for variations in yield.
# The HepG2 cells were incubated in RPMI 1640 standard medium with fetal calf serum (final concentration 10%). Serum-free RPMI medium was used as induction control. Subsequently, the complete mRNA was prepared and, by means of the Northern blot technique, the relevant LDL receptor mRNA and β-actin mRNA levels were determined. The quotient of the LDL receptor mRNA signal and of the β-actin mRNA signal of the control (without added substance) was set equal to 100%, and the stimulation above this of the LDL receptor mRNA levels achieved under the influence of the compounds was expressed as percentage of the control.
# LDL receptor mRNA [2] = test: Stimulation of LDL receptor mRNA expression in rat livers (Northern blot); type: in vivo; conditions: rat liver, 30 mg/kg, 6 hours after administration; untreated control = 100%
# Experimental: 1b. The LDL receptor mRNA levels are also raised in rat livers by compounds of the formula I within a few hours (Table II).
# as §1
# Liver tissue was removed and shock-frozen in liquid nitrogen.
# Subsequently, the mRNA was isolated as described and, by means of the Northern blot technique, the relative LDL receptor mRNA levels were determined. The mRNA level of untreated control animals was set equal to 100%, and the stimulation of the LDL receptor mRNA was calculated as a percentage of the […]
# serum lipoproteins = test: Effect on serum lipoproteins of normolipemic male rats in a subchronic experiment; type: in vivo; conditions: Rattus norvegicus, po, by stomach tube, 7 administrations; for change in vivo at 1 mg/kg: 1 mg/kg/day; for change in vivo at 3 mg/kg: 3 mg/kg/day; for change in vivo at 10 mg/kg: 10 mg/kg/day; for change in vivo at 30 mg/kg: 30 mg/kg/day
# Experimental: 3. In vivo, the increased LDL receptor activity in experimental animals is reflected by reduction in the lipoprotein fractions which can be metabolized by the LDL receptor (apoB/E receptor), i.e. a reduction in the LDL and VLDL levels is observed. The following test was carried out:
# Effect on serum lipoproteins of normolipemic male rats in a subchronic experiment
# Groups of in each case 10 male rats of the HOE: WISKf (SPF 71) strain with an initial weight above 180 g received once a day (in the morning) the test product or the comparison product in 1% aqueous ®Tylose MH 300 solution by stomach tube (0.5 ml/100 g of body weight); the control group in each case received only the vehicle. The last (7th) administration took place 24 hours before removal of blood and sacrifice. There was free access to food and water during the test. The food was withdrawn 24 hours before the removal of blood.
# The serum from all 10 rats in a group was pooled for the analysis of the serum lipoproteins. The serum lipoproteins were separated with a preparative ultracentrifuge (KONTRON TGA 65, Rotor BECKMAN 50.4 Ti).
# The following conditions specified by Koga, S., Horwitz, D. L., and Scanu, A. M., Journal of Lipid Research 10, 577 (1969) and Havel, R. J., Eder, H. A., and Bragdon, H. H., J. Clin. Invest. 34, 1345 (1955) were used to separate VLDL and LDL: 1. VLDL: Density<1.006, 40,000 rpm for 16 hours 2. LDL: Density 1.006-1.04, 40,000 rmp for 16 hours
# Test kits from BOEHRINGER/Mannheim were used for the enzymatic determination of cholesterol and triglycerides in the separated lipoprotein fractions (cf. Siedel, J., Schlumberger, H., Klose, S., Ziegenhorn, J. and Wahlefeld, A. W., J. Clin. Chem. Clin. Biochem. 19, 838 (1981) and Wahlefeld, A. W., in: H. O. Bergmeier: Methoden der enzymatischen Analyse (Methods of Enzymatic Analysis), 2nd edition, Volume II, Verlag Chemie 1974, page 1878). The proteins were determined by the method of Lowry (Lowry, O. H., Roseborough, N. H., Farr, A. L. and Randell, R. J., J. Biol. Chem. 193, 265 (1951)).
# Clofibrate was used as comparison product.
# [3] = Solubility in water of salts (and free bases); type: physicochemical; conditions: Table 2, salts of compounds I, temp. by No. [°C]: 1 25.5, 2 23.0, 3 22.4, 4 22.4, 5 22.0, 6 25.0, 7 25.5, 8 25.5, 9 25.5, 10 23.5, 11 23.5, 12 25.0, 13 24.0, 14 23.0, 15 22.0, 16 24.5, 17 22.5, 18 22.0
# [4] = read-out: Serum LDL cholesterol, % change from control at end of treatment
# [5] = read-out: Serum LDL protein, % change from control at end of treatment
# [6] = read-out: Serum VLDL cholesterol, % change from control at end of treatment
# [7] = read-out: Serum VLDL protein, % change from control at end of treatment
# [8] = read-out: Serum VLDL triglycerides, % change from control at end of treatment
Compound,activity at 2 µM (LDL receptor mRNA [1]) [%],LDL receptor mRNA (LDL receptor mRNA [2]) [%],change in vivo at 3 mg/kg (serum lipoproteins; [4]) [%],change in vivo at 3 mg/kg (serum lipoproteins; [5]) [%],change in vivo at 3 mg/kg (serum lipoproteins; [6]) [%],change in vivo at 3 mg/kg (serum lipoproteins; [7]) [%],change in vivo at 3 mg/kg (serum lipoproteins; [8]) [%],change in vivo at 10 mg/kg (serum lipoproteins; [4]) [%],change in vivo at 10 mg/kg (serum lipoproteins; [5]) [%],change in vivo at 10 mg/kg (serum lipoproteins; [6]) [%],change in vivo at 10 mg/kg (serum lipoproteins; [7]) [%],change in vivo at 10 mg/kg (serum lipoproteins; [8]) [%],change in vivo at 30 mg/kg (serum lipoproteins; [4]) [%],change in vivo at 30 mg/kg (serum lipoproteins; [5]) [%],change in vivo at 30 mg/kg (serum lipoproteins; [6]) [%],change in vivo at 30 mg/kg (serum lipoproteins; [7]) [%],change in vivo at 30 mg/kg (serum lipoproteins; [8]) [%],other results
"CCN(C(=O)c1cnc(N2CC(C)(C)NC2=O)nc1N)c1cccc(C(F)(F)F)c1 [Example 2, 4-amino-2-(4,4-dimethyl-2-oxo-1-imidazolidinyl)pyrimidine-5-carboxylic acid N-ethyl-N-(3-trifluoromethylphenyl)amide hydrochloride]",175,300,40,-28,-30,-7,40,-32,-28,-41,-28,-26,-75,-73,-96,40,-81,change in vivo at 1 mg/kg (serum lipoproteins; [4]): -28%; change in vivo at 1 mg/kg (serum lipoproteins; [5]): -44%; change in vivo at 1 mg/kg (serum lipoproteins; [6]): -22%
"CC1(C)CN(c2ncc(C(=O)N(CC3CC3)c3cccc(C(F)(F)F)c3)c(N)n2)C(=O)N1 [Example 12, 4-amino-2-(4,4-dimethyl-2-oxo-1-imidazolidinyl)pyrimidine-5-carboxylic acid N-cyclopropylmethyl-N-(3-trifluoromethylphenyl)amide hydrochloride]",170,,-26,-5,-6,-8,-4,46,-18,-63,-34,-51,-66,-30,-80,-51,-29,
CC1(C)CN(c2ncc(C(=O)N(c3cccc(C(F)(F)F)c3)C3CCCC3)c(N)n2)C(=O)N1 [Example 42],180,312,-34,-22,-23,-11,-29,-29,-9,-23,-10,-29,-48,-29,-70,-40,-61,
CN(C(=O)c1cnc(N2CC(C)(C)NC2=O)nc1N)c1cc(C(F)(F)F)ccc1F [Example 28],,,1,-26,-2,-29,,-33,-68,-74,41,46,-75,-62,-79,-49,-56,"1 part by mass dissolves in ... parts by H2O [3]: 72.7 parts by H2 O; solubility ([3]; water, read-out: Solubility in water, Concentration in % by wt.): 13.6 mg/mL"
"CCC(C)N(C(=O)c1cnc(N2CC(C)(C)NC2=O)nc1N)c1cccc(C(F)(F)F)c1 (stereo not drawn) [Example 8, 4-amino-2-(4,4-dimethyl-2-oxo-1-imidazolidinyl)-pyrimidine-5-carboxylic acid N-sec.-butyl-N-(3-trifluoromethylphenyl)amide hydrochloride]",237,,,,,,,,,,,,-30,-18,-39,-26,-37,
